Laboratory results: PubChem BioAssay (NCI)
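Following 48 hours of exposure in 96-well plates, responses at five concentrations were used to interpolate endpoints linearly. Here, GI50 denotes the concentration required for 50% inhibition of growth. TGI denotes the concentration required for complete inhibition of growth.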

Assays:
Assay in all cases: NCI tumour cell line growth inhibition, 48 h
[1] = system: NCI-H226 lung
[2] = system: A498 renal
[3] = system: UACC-257 melanoma
[4] = system: M14 melanoma
[5] = system: CCRF-CEM leukemia
[6] = system: HT29 colon
[7] = system: MDA-MB-231 breast
[8] = system: MOLT-4 leukemia
[9] = system: NCI/ADR-RES ovarian
[10] = system: HCC-2998 colon

Cc1ccc(/C=C2/SC(Nc3nc(-c4nc(NC5=NC(=O)/C(=C\c6ccc(C)cc6)S5)sc4C)c(C)s3)=NC2=O)cc1
GI50 [1]: 2.32 µM | TGI [1]: > 30.4 µM | GI50 [2]: 1.4 µM | TGI [2]: 7.52 µM | GI50 [3]: 1.04 µM | TGI [3]: 20.5 µM | GI50 [4]: 0.0642 µM | TGI [4]: 1.21 µM | GI50 [5]: 2.44 µM | TGI [5]: > 50 µM | GI50 [6]: 3.62 µM | TGI [6]: > 50 µM | GI50 [7]: 1.36 µM | TGI [7]: 19.9 µM | GI50 [8]: > 19.7 µM | TGI [8]: > 50 µM | GI50 [9]: 0.435 µM | TGI [9]: > 12.7 µM | GI50 [10]: 1.71 µM | TGI [10]: 9.92 µM

CN1CCN(c2nc(NCCCCNc3ccnc4cc(Cl)ccc34)c3ccccc3n2)CC1
GI50 [1]: 20.7 µM | TGI [1]: 45.8 µM | GI50 [2]: 12.1 µM | TGI [2]: 25 µM | GI50 [3]: 2.03 µM | TGI [3]: 3.9 µM | GI50 [4]: 1.83 µM | TGI [4]: 3.47 µM | GI50 [5]: 2.62 µM | TGI [5]: 93.9 µM | GI50 [6]: 2 µM | TGI [6]: 5.49 µM | GI50 [7]: 2.14 µM | TGI [7]: 5.93 µM | GI50 [8]: 3.08 µM | TGI [8]: 20 µM | GI50 [9]: 19 µM | TGI [9]: 56.1 µM | GI50 [10]: 2.59 µM | TGI [10]: 7.12 µM

Cc1nc2cnc3cc(F)c(-c4ccc(Oc5ncccn5)cc4Cl)cc3c2n1[C@H]1CCN(C(=O)CO)C[C@@H]1F
GI50 [1]: 5.18 µM | TGI [1]: 29.8 µM | GI50 [2]: 4.58 µM | TGI [2]: > 84.9 µM | GI50 [3]: 0.0269 µM | TGI [3]: 0.411 µM | GI50 [4]: 0.0155 µM | TGI [4]: 0.882 µM | GI50 [5]: 1.69 µM | TGI [5]: > 76.8 µM | GI50 [6]: 0.0513 µM | TGI [6]: 16.9 µM | GI50 [7]: 0.101 µM | TGI [7]: 5.83 µM | GI50 [8]: 0.792 µM | TGI [8]: 30 µM | GI50 [9]: 8.38 µM | TGI [9]: 49 µM | GI50 [10]: 0.261 µM | TGI [10]: 15.3 µM

O=C(/C=C/c1cccs1)c1ccc(Nc2nc(Nc3ccc(F)cc3)nc(Nc3ccc(F)cc3)n2)cc1
GI50 [1]: > 100 µM | TGI [1]: > 100 µM | GI50 [2]: 9.24 µM | TGI [2]: > 100 µM | GI50 [3]: 55.1 µM | TGI [3]: > 100 µM | GI50 [4]: 29.7 µM | TGI [4]: > 100 µM | GI50 [5]: 40.9 µM | TGI [5]: > 100 µM | GI50 [6]: 22.2 µM | TGI [6]: 70.5 µM | GI50 [7]: 34.7 µM | TGI [7]: > 100 µM | GI50 [8]: 29.1 µM | TGI [8]: > 100 µM | GI50 [9]: 31.3 µM | TGI [9]: > 100 µM | GI50 [10]: 15.8 µM | TGI [10]: > 100 µM

CC(C)[C@@]12C[C@@H](OC(=O)COC(=O)/C=C/c3ccccc3)[C@@](C)(O1)[C@@H]1CC[C@@H](C)[C@H]1[C@@H]2OC(=O)/C=C/c1ccccc1
GI50 [1]: > 100 µM | TGI [1]: > 100 µM | GI50 [2]: < 0.0441 µM | TGI [2]: 0.401 µM | GI50 [3]: > 100 µM | TGI [3]: > 100 µM | GI50 [4]: > 100 µM | TGI [4]: > 100 µM | GI50 [5]: > 100 µM | TGI [5]: > 100 µM | GI50 [6]: > 100 µM | TGI [6]: > 100 µM | GI50 [7]: > 100 µM | TGI [7]: > 100 µM | GI50 [8]: > 100 µM | TGI [8]: > 100 µM | GI50 [9]: 0.569 µM | TGI [9]: > 100 µM | GI50 [10]: > 100 µM | TGI [10]: > 100 µM

COc1ccc2c(c1)c(-c1nc(-c3c[nH]c4ncccc34)cs1)cn2CCCCN1CCOCC1
GI50 [1]: 2.46 µM | TGI [1]: 9.91 µM | GI50 [2]: 0.217 µM | TGI [2]: 3.17 µM | GI50 [3]: 2.18 µM | TGI [3]: 3.85 µM | GI50 [4]: 1.81 µM | TGI [4]: 3.62 µM | GI50 [5]: 2.12 µM | TGI [5]: 5.1 µM | GI50 [6]: 2.18 µM | TGI [6]: 3.94 µM | GI50 [7]: 1.7 µM | TGI [7]: 3.5 µM | GI50 [8]: 1.86 µM | TGI [8]: 3.92 µM | GI50 [9]: 2.34 µM | TGI [9]: 5.78 µM | GI50 [10]: 1.91 µM | TGI [10]: 3.7 µM

COc1cc(C(O)c2nc3ccccc3s2)cc(OC)c1OC (stereo not given)
GI50 [1]: 47.1 µM | TGI [1]: > 100 µM | GI50 [2]: 3.18 µM | TGI [2]: > 100 µM | GI50 [3]: 26 µM | TGI [3]: > 100 µM | GI50 [4]: 85.3 µM | TGI [4]: > 100 µM | GI50 [5]: 49.5 µM | TGI [5]: > 100 µM | GI50 [6]: > 100 µM | TGI [6]: > 100 µM | GI50 [7]: 58.7 µM | TGI [7]: > 100 µM | GI50 [8]: 18.1 µM | TGI [8]: > 100 µM | GI50 [9]: 8.96 µM | TGI [9]: > 100 µM | GI50 [10]: > 100 µM | TGI [10]: > 100 µM

Cn1ccnc1C(=O)/C=C/c1ccc(CC(=O)Nc2ccc(S(F)(F)(F)(F)F)cc2)cc1
GI50 [1]: 2.93 µM | TGI [1]: 7.02 µM | GI50 [2]: 3.12 µM | TGI [2]: 6.14 µM | GI50 [3]: 4.35 µM | TGI [3]: 10.5 µM | GI50 [4]: 3.16 µM | TGI [4]: 6.55 µM | GI50 [5]: 0.538 µM | TGI [5]: 16.7 µM | GI50 [6]: 3.25 µM | TGI [6]: 7.2 µM | GI50 [7]: 2.91 µM | TGI [7]: 6.66 µM | GI50 [8]: 0.578 µM | TGI [8]: 1.51 µM | GI50 [9]: 3.53 µM | TGI [9]: 9.35 µM | GI50 [10]: 2.92 µM | TGI [10]: 5.3 µM
